# PubChem BioAssay AID2060889 (Molecular Pharmacology Branch, DTP, NCI, 2025)
# System: LG0567-F671-PDC complex spheroids viability
# Assay: Anticancer human tumor LG0567-F671-PDC patient-derived lung adenocarcinoma cell line growth inhibition [RAS]
# Conditions: for IC50: curve of first compound; for viability, T/C: stronger effect = lower value
# Source text: RAS pathway inhibitors in Combinations in Complex Spheroids
# A high-throughput screen of multi-cell type tumor spheroids was designed to identify active combinations of RAS pathway inhibitors and targeted small molecules. Complex spheroids include a stromal component modeled by human endothelial cells (HUVEC) and fibroblasts modeled by human mesenchymal stem cells (MSCs). The concentration ranges selected for each drug and investigational agent were based upon clinically achievable concentrations if the clinical Cmax of the agent was known.
# Compounds. The drugs and investigational agents: abemaciclib (NSC768073), cobimetinib (NSC768068), divarasib (GDC6063, NSC841802), docetaxel (NSC628503), GDC-1971 (RLY-1971, NSC841576), gemcitabine (NSC613327), inavolisib (NSC800729), ipatasertib (NSC767898), KB-0742 (NSC834161), MRTX-1133 (NSC836407), osimertinib (NSC779217), RMC-4630 (NSC839698), RMC-6236 (NSC851965), RMC-6291 (NSC852671), Ro-3306 (NSC812927), sapanisertib (NSC764658), SN-38 (NSC673596), staurosporine (NSC755774), SY5609 (NSC837396), and tovorafenib (DAY101, NSC766906), were obtained from the National Cancer Institute (NCI) Developmental Therapeutics Program Chemical Repository. The FDA-approved anticancer drug set is available from the NCI Developmental Therapeutics Program. […] The stock solutions were prepared in dimethyl sulfoxide (DMSO, Sigma-Aldrich, St. Louis, MO, cat. D2650) at 800-fold the tested concentration and stored at -70 degrees C prior to their use. All drugs and investigational agents were tested over a range starting from a high concentration at or near the clinical Cmax and decreasing in half-log increments. If the clinical Cmax for an agent had not been determined, the highest concentration tested was 10 microM.
# Cell Culture. All cells were maintained in an incubator at 37 degrees C and 5% CO2 with 95% humidity. The PDC lines were cultured according to standard operating procedures established by the NCI PDMR. All PDCs were thawed and cultured in Matrigel-coated flasks prepared with a working solution of 1X Ham's F-12 nutrient mix, without supplementation (Invitrogen, Waltham, MA, cat. 11765054), 100 U/mL penicillin-streptomycin (Invitrogen, cat. 15140122), and 2.5% Matrigel (Corning Inc., Corning, NY, cat. 354248) for the first three passages. The 362531-283-R-J2-PDC and 782815-120-R-J1-PDC lines were cultured in 6C/Colon 1B media, which includes advanced DMEM/F-12 (Thermo Fisher Scientific, cat. 12634028), 10 mM HEPES (Thermo Fisher Scientific, cat. 15630080), 1X GlutaMAX supplement (Thermo Fisher Scientific, cat. 35050061), 0.1 mg/mL primocin (InvivoGen, San Diego, CA, cat. ant-pm-2), 10% defined fetal bovine serum, heat inactivated (HyClone Laboratories Inc., Logan, UT, cat. SH30070.03HI), 50% L-WRN conditioned media (ATCC, cat. CRL-3276), 1.25 mM N-Acetyl-L-cysteine (Sigma-Aldrich, cat. A9165), 10 mM nicotinamide (Sigma-Aldrich, cat. N0636), 1X B-27 supplement (Thermo Fisher Scientific, cat. 17504044), 1X N-2 supplement (Thermo Fisher Scientific, cat. 17502048), 50 ng/mL human EGF (Thermo Fisher Scientific, cat. PHG0311), and 10 microM Y-27632 dihydrochloride (Tocris Bioscience, cat. 1254). The K12877-001-R-J1-PDC line was cultured in 6I media, which includes all 6C/Colon 1B media plus 10 ng/mL human FGF-10 (PeproTech, cat. 100-26), 1 ng/mL human FGF-2 (PeproTech, cat. 100-18B), 1 µM prostaglandin E2 (Tocris Bioscience, cat. 2296), […] hydrocortisone (Sigma-Aldrich, cat. H4001), and […] bovine insulin (Sigma-Aldrich, cat. I6634). The K86415-001-R-J1-PDC line was cultured in 6D media, which includes all 6C/Colon 1B media components minus the L-WRN conditioned media. The 485176-168-R4-J1-PDC was cultured in PANC media, which includes all 6C/Colon 1B media plus 100 ng/mL human FGF-10 (PeproTech, cat. 100-26), 500 nM SB-431542 (Selleckchem, cat. S1067), and 10 nM gastrin (Tocris Bioscience, cat. 3006). […]
# 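Note: spheroids exposed to compound for seven days before readout.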
# 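Throughout, for IC50: luminescence signal used as a proxy for viable cells.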
structure (smiles),measurement,setting,value
CC(Nc1ccc2c(c1)OCCn1cc(N3C(=O)OCC3C(F)F)nc1-2)C(N)=O (configuration not stated) + CCn1c(-c2cc(N3CCN(C)CC3)cnc2C(C)OC)c2c3cc(ccc31)-c1csc(n1)CC(NC(=O)C1CC1C)C(=O)N1CCCC(N1)C(=O)OCC(C)(C)C2,IC50,second compound 0.000949 µM,< 31.6 nM
same,IC50,second compound 0.003 µM,< 31.6 nM
same,IC50,second compound 0.00949 µM,< 31.6 nM
same,IC50,second compound 0.03 µM,< 31.6 nM
same,IC50,second compound 0.0949 µM,< 31.6 nM
same,IC50,second compound 0.3 µM,< 31.6 nM
same,"viability, T/C","second compound 0.000949 µM, first compound 0.0316 µM",19.3%
same,"viability, T/C","second compound 0.000949 µM, first compound 0.1 µM",12.9%
same,"viability, T/C","second compound 0.000949 µM, first compound 0.316 µM",10.5%
same,"viability, T/C","second compound 0.000949 µM, first compound 1 µM",7.84%
same,"viability, T/C","second compound 0.000949 µM, first compound 3.16 µM",7.19%
same,"viability, T/C","second compound 0.000949 µM, first compound 10 µM",7.14%
same,"viability, T/C","second compound 0.003 µM, first compound 0.0316 µM",7.68%
same,"viability, T/C","second compound 0.003 µM, first compound 0.1 µM",7.52%
same,"viability, T/C","second compound 0.003 µM, first compound 0.316 µM",5.35%
same,"viability, T/C","second compound 0.003 µM, first compound 1 µM",3.88%
same,"viability, T/C","second compound 0.003 µM, first compound 3.16 µM",3.53%
same,"viability, T/C","second compound 0.003 µM, first compound 10 µM",3.37%
same,"viability, T/C","second compound 0.00949 µM, first compound 0.0316 µM",5.03%
same,"viability, T/C","second compound 0.00949 µM, first compound 0.1 µM",3.43%
same,"viability, T/C","second compound 0.00949 µM, first compound 0.316 µM",3.46%
same,"viability, T/C","second compound 0.00949 µM, first compound 1 µM",2.91%
same,"viability, T/C","second compound 0.00949 µM, first compound 3.16 µM",1.87%
same,"viability, T/C","second compound 0.00949 µM, first compound 10 µM",1.74%
same,"viability, T/C","second compound 0.03 µM, first compound 0.0316 µM",3.07%
same,"viability, T/C","second compound 0.03 µM, first compound 0.1 µM",2.58%
same,"viability, T/C","second compound 0.03 µM, first compound 0.316 µM",1.57%
same,"viability, T/C","second compound 0.03 µM, first compound 1 µM",1.37%
same,"viability, T/C","second compound 0.03 µM, first compound 3.16 µM",1.64%
same,"viability, T/C","second compound 0.03 µM, first compound 10 µM",1.25%
same,"viability, T/C","second compound 0.0949 µM, first compound 0.0316 µM",2.35%
same,"viability, T/C","second compound 0.0949 µM, first compound 0.1 µM",2.02%
same,"viability, T/C","second compound 0.0949 µM, first compound 0.316 µM",1.42%
same,"viability, T/C","second compound 0.0949 µM, first compound 1 µM",1.29%
same,"viability, T/C","second compound 0.0949 µM, first compound 3.16 µM",1.01%
same,"viability, T/C","second compound 0.0949 µM, first compound 10 µM",0.89%
same,"viability, T/C","second compound 0.3 µM, first compound 0.0316 µM",2.27%
same,"viability, T/C","second compound 0.3 µM, first compound 0.1 µM",1.33%
same,"viability, T/C","second compound 0.3 µM, first compound 0.316 µM",1.26%
same,"viability, T/C","second compound 0.3 µM, first compound 1 µM",1.33%
same,"viability, T/C","second compound 0.3 µM, first compound 3.16 µM",1.18%
same,"viability, T/C","second compound 0.3 µM, first compound 10 µM",0.92%
